Target: T1, CymA (Shewanella oneidensis, UniProt Q8E8S0)
T1 sequence (Q8E8S0 1-187): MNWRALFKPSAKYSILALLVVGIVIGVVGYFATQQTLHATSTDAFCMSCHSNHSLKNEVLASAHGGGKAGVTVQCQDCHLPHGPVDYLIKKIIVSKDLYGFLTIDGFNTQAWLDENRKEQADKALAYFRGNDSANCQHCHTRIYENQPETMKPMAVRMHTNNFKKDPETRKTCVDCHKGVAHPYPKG
Experiment: protein-film cyclic voltammetry, inhibition of menaquinone-7 reduction
Assay type: biochemical

Compound: CCCCCCCc1cc(O)c2ccccc2[n+]1[O-] [HQNO]
- Ki: 800 nM
